# Reference: patent publication US20220152022A1
# Several values for one entry are separate records, joined by “and”; a condition that tells them apart may be missing. Identical values can stand only once. Counter-ions that a name gives are not always drawn.
# Assays:
# Assay type in all cases: in vivo, human
# [1] = test system: Overweight and Obese Adults; test: Dose-ranging phase 1 clinical study (NCT02475317), multiple oral doses for 7 days; conditions: for treatment-emergent adverse events: all doses, 7 days; for Mean serum 7αC4: change from baseline to day 7, greatest change at maralixibat 50 mg BID; for Mean sBA levels: versus baseline, day 7
# [2] = test system: Children with Progressive Familial Intrahepatic Cholestasis; test: INDIGO phase 2 open-label efficacy and safety study of maralixibat
# Text: The HRQoL used was the […] QUALITY OF LIFE INVENTORY (PedsQL).
# [3] = test system: Children with Alagille Syndrome; test: ICONIC phase 2b randomized placebo-controlled drug-withdrawal study with long-term extension
# Procedure: Children aged 1-18 years with a diagnosis of ALGS and evidence of cholestasis were eligible to enroll in the ICONIC clinical study, see Tables 12-14. During a long-term extension, participants with sBA levels above the upper limit of normal and/or an ITCHRO(OBS) score >1.5 were eligible for the 400 μg/kg BID dose (all participants received the 400 μg/kg BID dose). Inclusion criteria for the ICONIC study included having cholestasis, which was defined as at least one of 1) sBA concentration (total sBA) >3× the upper limit of normal, 2) serum conjugated bilirubin concentration >1 mg/dL, 3) fat-soluble vitamin deficiency not otherwise explained, 4) serum gamma-glutamyl transferase concentration >3× the upper limit of normal, and 3) intractable pruritus explainable only by liver disease. Inclusion criteria also included having significant pruritus, which was defined as an average daily score of >2 on the ITCHRO(OBS) scale for 2 consecutive weeks (0=no pruritus; 4=most severe pruritus). Exclusion criteria included having surgically disrupted enterohepatic circulation, a liver transplant, decompensated cirrhosis, or having any liver disease other than ALGS.
# sBA responders were defined as those patients achieving ≥50% reduction from baseline in sBA at week 12 or 18. ITCHRO responders were defined as those patients achieving at least a 1-point reduction from Baseline in weekly morning ITCHRO(OBS) score at week 12 or 18.
# In the open label extension, the effect of higher doses was explored by increasing dosage to a maximum of 400 μg/kg BID in eligible participants.
# Efficacy assessments were based on changes from baseline in sBA concentration, weekly average ITCHRO(OBS) scores (0, none; 4, most severe), CSS score (0, none; 4 most severe), and Clinician Xanthoma Scale score (0, none; 4, disabling). […] During the long-term extension, efficacy assessments were conducted every 12 weeks. Serum total cholesterol and serum 7αC4 concentration were also monitored during the ICONIC clinical study, among other measures.
# sBA were measured using a fully validated liquid chromatography-electrospray ionization-mass electrospray (LC-ESI-MS) method using stable-isotope dilution analysis to measure serum concentrations of principal bile acids (cholic, chenodeoxycholic, ursodeoxycholic, deoxycholic acid, lithocholic, and their corresponding glycine and taurine conjugates). Serum samples were analyzed in the Division of Pathology and Laboratory Medicine, Cincinnati Children's Hospital Medical Center according to SOP #PATH.CMS.1033. Calibration standards of individual bile acids were in the range of 50-25,000 ng/mL and Quality Control samples were prepared at concentrations of 100, 500, 1000, 2500, and 20000 ng/mL. The intra- and inter-assay imprecision of the method for individual bile acids measured was within the accepted GLP quality assurance guidelines of <15% coefficient of variance for these QC samples. The lower limit of quantification of the assay was set at 100 ng/mL and the imprecision at this concentration was <20%. The limit of detection of the assay was 5 ng/mL. Total sBA is represented by the sum of the individual bile acid species measured.
# [4] = test system: Participants with Primary Sclerosing Cholangitis (PSC); test: CAMEO 14-week single-arm open-label phase 2a proof-of-concept study
# Procedure: Participants were adults aged 18-80 years with a diagnosis of PSC. PSC diagnosis included a documented history of alkaline phosphatase (ALP) levels greater than 1.5 times above the upper limit of normal, biliary obstruction, and histological findings consistent with PSC diagnosis (if previously biopsied). The study enrolled 27 adults.
# Efficacy was assessed by measuring at baseline and throughout the study sBA concentration, serum 7αC4 concentration (a marker of de novo bile acid synthesis), serum aoutotaxin concentration, LDL-C concentration, serum total cholesterol concentration, serum liver enzyme concentrations, and pruritus severity. Pruritus severity was determined by calculating Adult Itch Reported Outcome (ITCHRO) weekly sum scores and average daily scores (mean score over a 7-day period). Participants self-reported the ITCHRO daily on a scale 0-10 (0=no pruritus; 10=most severe pruritus).
# Outcomes were assessed in the overall study population and in subgroups of participants (A) with any pruritus at baseline or (B) with an ITCHRO average daily score ≥4 out of 10 at baseline. Efficacy endpoints were based on change from baseline to week 14 or early termination (ET) and were analyzed using paired t-tests or Wilcoxon signed rank tests.
smiles,measurement,setting,value
CCCCC1(CCCC)CS(=O)(=O)c2ccc(N(C)C)cc2[C@@H](c2ccc(OCc3ccc(C[N+]45CCN(CC4)CC5)cc3)cc2)[C@H]1O.[Cl-] [maralixibat],treatment-emergent adverse events,[1],"All treatment-emergent adverse events were mild, and none were serious"
same,Mean serum 7αC4,[1],increased
same,Mean sBA levels,[1],not elevated
same,multi-parameter response,[2]; all PFIC 1 patients and all patients harboring a truncating ABCB11 mutation,not multi-parameter responders
same,"serum ALT, AST, and bilirubin concentrations over time","[2]; all low-dose responders, e.g. within 2-6 months of first administration",normalized or only mildly elevated
same,height Z-score,"[2]; high dose responder, following treatment response on sBA",increase in height Z-score
same,Response,"[2]; individual PFIC 2 participants, one line each, max dose 280 or 560 μg/kg/day (Table 6), No reponse [sic] / Rapid complete response / Good response / No response until 560 reached",Rapid (4×) and No (19×) and Good
same,cholestasis markers after dose increase,"[2]; low-dose responder losing response in long-term extension, raised to 280 μg/kg BID at between 640 and 730 days","sBA concentration decreased, severity of pruritus decreased, serum 7αC4 concentration increased, and 7αC4:sBA ratio increased"
same,growth (height Z-score change relative to baseline),[2]; low-dose responders (FIG. 4),improved growth relative to baseline
same,7αC4 concentrations at 48 weeks,"[2]; low-dose responders (range, 3-43)",14 × baseline
same,multi-parameter responders,"[2]; mild PFIC 2 patients, 280 μg/kg QD",1 of 7
same,responders only after higher dose (high-dose responder),"[2]; moderate PFIC 2 patients, 280 μg/kg twice daily",1 of 12
same,responders by week 48,"[2]; moderate PFIC 2 patients, 280 μg/kg/day",5 of 12
same,growth (height Z-score change relative to baseline),[2]; non-responders (FIG. 4),did not
same,7αC4 concentrations at 48 weeks,"[2]; non-responders (range, 0.5-6)",1.8 × baseline
same,duration of maintained response,"[2]; responders, long-term extension",for over a year and for up to or beyond 5 years
same,weight Z-scores,[3]; 400 μg/kg QD then 400 μg/kg BID (FIGS. 35-36),dose-dependent increase in weight Z-scores
same,Change in ItchRO from Baseline to Week 48,"[3]; ITCHRO(OBS) weekly morning average score, individual subjects (Table 18)",−0.12 and 0.49 and −0.45 and 0.00 and −1.86 (2×) and −1.71 (2×) and −1.00 (2×) and −1.29 and −1.67 and −1.14 and −1.03 and −2.50 and −2.71 and −3.50 and −0.17 and −1.43 and −0.83
same,study days reported as minimal or no pruritus (ITCHRO(OBS)<1),"[3]; across participants, after 98 weeks",over 89%
same,Clinician xanthoma scale scores,"[3]; all participants, by week 48 (p<0.01)",improved significantly
same,quality of life,[3]; core study and extension,improved quality of life
same,PedsQL Multidimensional Fatigue Scale scores,[3]; core study and extension (p<0.01),Improvements were seen
same,tolerability,"[3]; core study and extension, doses up to 800 μg/kg/day, up to 4 years",generally well tolerated
same,"ItchRO(Obs) Weekly Morning Average Score, Change from Baseline to Week 48","[3]; individual subjects, one line each (Table 19)",−1.86 (2×) and −1.71 (2×) and −1.00 (2×) and −1.29 and −1.67 and −1.14 and −1.03 and −1.43
same,growth after dose increase,[3]; patients (N=15) given 400 μg/kg BID after 400 μg/kg QD for more than about 40 weeks,further increase in growth from baseline
same,"sBA responders at Week 48 (N = 28), %",[3]; sBA Response Definition Normalization (<8.5 μmol/L),(3.6%)
same,"sBA responders at Week 48 (N = 28), %",[3]; sBA Response Definition ≥80% Reduction,(14.3%)
same,"sBA responders at Week 48 (N = 28), %",[3]; sBA Response Definition ≥90% Reduction,(3.6%)
same,tolerability,"[4]; adults with PSC, up to 10 mg/day, 14 weeks",well tolerated
same,"Changes in serum total bilirubin, alanine aminotransferase, aspartate aminotransferase, and alkaline phosphatase concentrations",[4]; all participants,not statistically significant
same,participants with worsening of pruritus by >1 point,[4]; baseline to week 14,No participants
same,participants with ITCHRO average daily score improved by >1 point,[4]; count of all participants,8 out of 27
same,participants with ITCHRO average daily score improved by >3 points,[4]; count of all participants,6 of 27
same,"Mean conjugated bilirubin levels, increase",[4]; overall population,0.19 mg/dL
same,conjugated bilirubin levels,[4]; participants with ITCHRO daily score ≥0 at baseline (so in the source),no significant change
same,autotaxin levels,[4]; participants with ITCHRO daily score ≥4 at baseline,significant reductions
"CCCC[C@]1(CC)CS(=O)(=O)c2ccc(N(C)C)cc2[C@@H](c2cccc(NC(=O)N[C@@H]3O[C@H](COS(=O)(=O)O)[C@@H](O)[C@H](OCc4ccccc4)[C@H]3O)c2)[C@H]1O (stereo in doubt) [volixibat, (2R,3R,4S,5R,6R)-4-benzyloxy-6-{3-[3-((3 S,4R,5R)-3-butyl-7-dimethylamino-3-ethyl-4-hydroxy-1,1-dioxo-2,3,4,5-tetrahydro-1H-benzo[b]thiepin-5-yl)-phenyl]-ureido}-3,5-dihydroxy-tetrahydro-pyran-2-ylmethyl) hydrogen sulfate]",treatment-emergent adverse events,[1],"All treatment-emergent adverse events were mild, and none were serious"
same,Mean serum 7αC4,[1],increased
same,Mean sBA levels,[1],not elevated
